Literature values, collected in US20040192598A1, “Composition and method of alleviating adverse side effects and/or enhancing efficacy of agents that inhibit aromatase” (priority 2000, published 2004).
Read-outs that look alike come from different tables or passages of the source.

Columns and labels:
[1] = target: T1, aromatase (Homo sapiens, UniProt P11511); conditions: treatment for breast cancer
T1 construct: host or cells: patients (in vivo, endogenous enzyme)
T1 sequence (P11511 1-503): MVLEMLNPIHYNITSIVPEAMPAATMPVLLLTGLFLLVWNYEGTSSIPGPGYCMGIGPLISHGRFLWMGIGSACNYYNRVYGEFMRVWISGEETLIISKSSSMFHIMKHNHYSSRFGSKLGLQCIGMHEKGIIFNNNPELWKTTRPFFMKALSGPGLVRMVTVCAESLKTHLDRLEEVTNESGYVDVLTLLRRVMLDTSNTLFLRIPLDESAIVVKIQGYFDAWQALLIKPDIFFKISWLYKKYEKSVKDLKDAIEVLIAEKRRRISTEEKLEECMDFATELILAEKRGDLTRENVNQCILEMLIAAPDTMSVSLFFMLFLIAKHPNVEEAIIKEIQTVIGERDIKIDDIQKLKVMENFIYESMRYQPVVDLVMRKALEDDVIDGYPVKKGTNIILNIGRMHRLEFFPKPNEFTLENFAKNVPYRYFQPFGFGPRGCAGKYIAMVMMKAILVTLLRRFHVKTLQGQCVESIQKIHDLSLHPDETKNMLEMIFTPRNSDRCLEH

SMILES | serum estrogen levels [1] | other results
N#Cc1ccc(C(c2ccc(C#N)cc2)n2cncn2)cc1 [Letrozole] | suppress serum estrogen levels to the limit of assay detection | 
CC(C)(C#N)c1cc(Cn2cncn2)cc(C(C)(C)C#N)c1 [anastrozole] | suppress serum estrogen levels to the limit of assay detection | 
Clc1ccccc1C(c1ccccc1)(c1ccccc1)n1ccnc1 [clotrimazole] |  | relative risk for spontaneous abortion (in vivo): increased relative risk was also noted
C[C@@H]1[C@H](O)[C@@H](C)/C=C/C=C/CC/C=C/C=C/C=C/C=C/C(O[C@H]2O[C@H](C)[C@@H](O)[C@H](N)[C@@H]2O)CC2O[C@](O)(CC(O)C(O)CCC(O)CC(O)CC(O)CC(=O)O[C@H]1C)CC(O)C2C(=O)O (stereo partly shown) [nystatin] |  | relative risk for spontaneous abortion (first-trimester exposure, independent of drug therapy indication): not
